Patent US20200179426A1, “METHODS OF USE FOR OENOTHEIN A AND B FROM EPILOBIUM SPECIES” (EPILOBIUM, INC., priority 2017, published 2020)

Key:
[1] = system: hen's-egg chorioallantoic membrane (CAM); test: hen's-egg chorioallantoic membrane (CAM) irritation model with 15% lactic acid as standard irritant; settings: oenothein B extract at 1% (weight to volume) dilution; applied before the irritant (15% lactic acid), simulating prophylactic use
Procedure: In the hen's-egg chorioallantoic membrane (CAM) model, in which the CAM is treated with 15% lactic acid as a standard irritant, the development of manifestations of membrane irritation were tracked and scored according to published methods for assessing irritancy. A sample of the oenothein B extract from Canadian Willow herb described in Example 1 was tested at a 1% (weight to volume) dilution for activity in the CAM model.

[2] = xanthine oxidase/acetaldehyde spectrophotometric free radical scavenging assay; assay type: biochemical
Procedure: The scavenging of free super oxide radicals is quantitated spectrometrically and expressed in terms of percentage of radicals scavenged. Assays were performed with 1% (w/v) and 0.1% (w/v) dilutions of the dried extract, which yielded up to 100% scavenging activity and up to 99% scavenging activity respectively.

oenothein B
decrease in irritation [1]: up to 70% | scavenging activity (percentage of superoxide radicals scavenged) ([2]; 0.1% (w/v) dilution of the dried extract): up to 99% | scavenging activity (percentage of superoxide radicals scavenged) ([2]; 1% (w/v) dilution of the dried extract): up to 100%
